Measured values as given in patent US5292892A, “Anti-bacterial compound and pharmaceutical compositions thereof” (Sankyo Company, Limited, priority 1991, dated 1994).
Values after ≈ are worked out from the molar mass of the structure shown.

How the values were obtained:
Solubility = type: physicochemical
[1] = test system: Mycoplasma gallisepticum S-6; test: Antimycoplasmal activity (MIC); type: cell-based; conditions: Mycoplasmoides gallisepticum, S6, 120 h; Chanock medium, 20% horse serum; 37° C., 5 days, slightly aerobic; 0.005 ml of 10^5 CFU/ml
[2] = test system: Mycoplasma gallisepticum K-1; test: Antimycoplasmal activity (MIC); type: cell-based; conditions: Mycoplasmoides gallisepticum, K1, 120 h; Chanock medium, 20% horse serum; 37° C., 5 days, slightly aerobic; 0.005 ml of 10^5 CFU/ml
[3] = test system: Mycoplasma hyosynoviae S-16; test: Antimycoplasmal activity (MIC); type: cell-based; conditions: S16, 120 h, Mucin PPLO agar medium, 15% horse serum, 37° C., 5 days, slightly aerobic, 0.005 ml of 10^5 CFU/ml
Protocol: (§1) Following the procedure as described below, the activity of thiomarinol was assayed against various species of mycoplasma.
M. hyosynoviae Mucin PPLO* agar medium (15%
horse serum supplemented)
(§2) 37° C., 5 days, slightly aerobic
(§3) (BBL gas pack method [cultivation
(§4) in disposable CO2 generator from
(§5) Becton Dickinson Microbiology
(§6) Systems, Cockeysville, MD 2103
*PPLO ( -- Pleuro -- Pneumonia- -- Like
PPLO Broth without CV (Difco)
Mucin bacteriological (Difco)
Agar Noble (Difco) 12 g
25% Fresh yeast extract 50 ml

[4] = test system: Staphylococcus aureus 209P; test: MIC, agar medium dilution method; type: cell-based; conditions: nutrient agar
Protocol: (§7) The minimum inhibitory concentration (MIC) of thiomarinol, given as μg/ml, against gram-positive and gram-negative bacteria was determined by the agar medium dilution method, using a nutrient agar medium (Product of Eiken Chemical Co., Ltd.).

[5] = test system: Klebsiella pneumoniae 806; test: MIC, agar medium dilution method; type: cell-based; conditions: nutrient agar
Protocol: as §7

Enterobacter cloacae 963 = test: MIC, agar medium dilution method; type: cell-based; conditions: nutrient agar
Protocol: as §7

[6] = test system: Staphylococcus aureus 56R; test: MIC, agar medium dilution method; type: cell-based; conditions: nutrient agar
Protocol: as §7

Proteus vulgaris 1420 = test: MIC, agar medium dilution method; type: cell-based; conditions: nutrient agar
Protocol: as §7

[7] = test system: Pseudomonas aeruginosa N07; test: MIC, agar medium dilution method; type: cell-based; conditions: nutrient agar
Protocol: as §7

Salmonella enteritidis = test: MIC, agar medium dilution method; type: cell-based; conditions: Salmonella enterica, nutrient agar
Protocol: as §7

Escherichia coli NHIJ = test: MIC, agar medium dilution method; type: cell-based; conditions: nutrient agar
Protocol: as §7

Morganella morganii 1510 = test: MIC, agar medium dilution method; type: cell-based; conditions: nutrient agar
Protocol: as §7

[8] = test system: Enterococcus faecalis 681; test: MIC, agar medium dilution method; type: cell-based; conditions: nutrient agar
Protocol: as §7

Escherichia coli 609 = test: MIC, agar medium dilution method; type: cell-based; conditions: nutrient agar
Protocol: as §7

Serratia marcescens 1184 = test: MIC, agar medium dilution method; type: cell-based; conditions: nutrient agar
Protocol: as §7

[9] = test system: Klebsiella pneumoniae 846 (R); test: MIC, agar medium dilution method; type: cell-based; conditions: nutrient agar, (R) strain
Protocol: as §7

[10] = test system: Pseudomonas aeruginosa 1001; test: MIC, agar medium dilution method; type: cell-based; conditions: nutrient agar
Protocol: as §7

[11] = test system: Staphylococcus aureus 535 (MRSA); test: MIC, agar medium dilution method; type: cell-based; conditions: nutrient agar
Protocol: as §7

Mycoplasma bovis Donetta = test: Antimycoplasmal activity (MIC); type: cell-based; conditions: Mycoplasmopsis bovis, 120 h; Chanock medium, 20% horse serum; 37° C., 5 days, slightly aerobic; 0.005 ml of 10^5 CFU/ml
[12] = test system: Mycoplasma synoviae WVU1853; test: Antimycoplasmal activity (MIC); type: cell-based; conditions: Mycoplasmopsis synoviae, WVU1853, 120 h; Frey medium, 12% swine serum; 37° C., 5 days, slightly aerobic; 0.005 ml of 10^5 CFU/ml
Protocol: as §1
M. synoviae Frey medium [prepared as de-
scribed in Am. J. Vet. Res., --29,
as §2, §3, §4, §5, §6

[13] = test system: Mycoplasma gallisepticum PG-31; test: Antimycoplasmal activity (MIC); type: cell-based; conditions: Mycoplasmoides gallisepticum, PG31, 120 h; Chanock medium, 20% horse serum; 37° C., 5 days, slightly aerobic; 0.005 ml of 10^5 CFU/ml

C/C(=C\C(=O)OCCCCCCCC(=O)Nc1c2sscc-2[nH]c1=O)C(O)C1OCC(C/C=C/C(C)C(C)O)C(O)C1O (single isomer, unassigned) [thiomarinol]
Solubility (Solubility; alcohols (methanol, ethanol, propanol, butanol), dimethyl sulfoxide, dimethylformamide, chloroform, ethyl acetate, acetone, ethyl ether): Soluble | Solubility (Solubility; hexane): insoluble | Solubility (Solubility; water): insoluble | MIC [1]: 0.1 µg/mL (≈ 0.156 µM) | MIC [2]: 0.05 µg/mL (≈ 0.078 µM) | MIC [3]: 0.025 µg/mL (≈ 0.039 µM) | MIC [4]: ≤ 0.01 µg/mL | MIC [5]: 0.8 µg/mL (≈ 1.25 µM) | MIC (Enterobacter cloacae 963): 1.5 µg/mL (≈ 2.34 µM) | MIC [6]: ≤ 0.01 µg/mL | MIC (Proteus vulgaris 1420): 0.05 µg/mL (≈ 0.078 µM) | MIC [7]: 0.4 µg/mL (≈ 0.624 µM) | MIC (Salmonella enteritidis): 0.4 µg/mL (≈ 0.624 µM) | MIC (Escherichia coli NHIJ): 0.8 µg/mL (≈ 1.25 µM) | MIC (Morganella morganii 1510): 6.2 µg/mL (≈ 9.68 µM) | MIC [8]: 0.02 µg/mL (≈ 0.0312 µM) | MIC (Escherichia coli 609): 0.8 µg/mL (≈ 1.25 µM) | MIC (Serratia marcescens 1184): 3.1 µg/mL (≈ 4.84 µM) | MIC [9]: 0.2 µg/mL (≈ 0.312 µM) | MIC [10]: 0.2 µg/mL (≈ 0.312 µM) | MIC [11]: ≤ 0.01 µg/mL | MIC (Mycoplasma bovis Donetta): 0.0125 µg/mL (≈ 0.0195 µM) | MIC [12]: < 0.006 µg/mL | MIC [13]: 0.05 µg/mL (≈ 0.078 µM)
